Measurements taken from a melting point compilation (Tetko et al.).

Row | Compound | melting point [°C]
1 | O=[N+]([O-])c1ccc2c(c1)-c1cccc([N+](=O)[O-])c1C2 | 284 to 288
2 | Cc1ccc2nc(C)cc(C)c2c1 | 68
3 | O=C(O)CCCCCCCCCCO | 65.5
4 | O=c1[nH]c(=O)n(C2OC(CO)C(O)C2O)cc1F (stereo not drawn) | 180 to 183
5 | N#Cc1ccc(C2CCCc3cncn32)cc1 (stereo not drawn) | 117
6 | Fc1cccc(F)c1CBr | 51 to 55
7 | Cc1ccc([N+](=O)[O-])c2ccccc12 | 71.5
8 | CC(=O)Nc1ccc(C(C)=O)c(O)c1 | 143 to 145
9 | C#CC(C)OC(=O)Nc1cccc(Cl)c1 (stereo not drawn) | 45.5
10 | COC1=CC=C2C3Cc4ccc(OC)c5c4C2(CCN3C)C1O5 (stereo not drawn) | 193
11 | CC(C)(C)c1ccc(CCO)cc1 | 33
12 | O=[N+]([O-])c1cc2nccnc2cc1Br | 221 to 227
13 | C=CCOCC=C | -6
14 | O=C(n1ccnc1)C(F)(F)C(F)(F)C(F)(F)F | 11
15 | O=C1/C(=C/c2ccc([N+](=O)[O-])cc2)SC(=S)N1CN1CCOCC1 | 169
16 | N#Cc1ccc(NC(N)=S)cc1 | 209 to 210
17 | c1ccc(C2Cc3ccccc3N2)cc1 (stereo not drawn) | 49
18 | CCOC(=O)C(=O)C=CN(C)C | 38
19 | C=CC(CO)N1C(=O)c2ccccc2C1=O (stereo not drawn) | 62.2
20 | COc1ccc(N/N=C(/C(=O)c2cccc3ccccc23)S(=O)(=O)c2ccccc2)cc1 | 118
21 | Nc1nsc(-c2ccc(Cl)cc2)n1 | 201 to 202
22 | O=C(Cl)c1ccc(-c2ccco2)s1 | 83
23 | Cc1cc([N+]([O-])=Nc2ccccc2)ccc1[N+]([O-])=Nc1ccccc1 | 100

Row | Compound | melting point [°C]
24 | O=C(Nc1cccc2ccccc12)C(C(F)(F)F)C(F)(F)F | 224
25 | O=C1C=C[C@H](CO)O1 | 39 to 45
26 | C=C1C(=O)C23C(OC(C)=O)CC4C(C)(C)CCC(OC(C)=O)C4(C)C2C(OC(C)=O)CC1(OC(C)=O)C3OC(C)=O (stereo not drawn) | 280
27 | CCCCCCCCCCCCCCCCCCCO | 63.3
28 | Clc1ccc2c(N3CCNCC3)ccnc2c1 | 113 to 116
29 | c1cc2[nH]cnc2cn1 | 172
30 | COc1cccc(OC)c1Br | 93
31 | CC1(C)CC(=O)C(Cl)C(=O)C1 | 163
32 | Cn1c(/C(C#N)=N/Nc2c(Cl)cc(Cl)cc2Cl)nc2ccccc21 | 168
33 | O=C(COC(=O)c1ccccc1)NC(CO)(CO)CO | 126
34 | CCCCN(CCCC)c1ccccc1 | -32.2
35 | Nc1ccc2cc(N)ccc2c1 | 213
36 | O=C(CCl)Nc1ccccc1Cl | 70 to 73
37 | Nc1nc(NC2CC2)c2ncn(C3C=CC(CO)C3)c2n1 (stereo not drawn) | 165
38 | CC1CC(=O)C(=O)C1C (stereo not drawn) | 64 to 69
39 | CCC(O)(CC)C1(C)CCC(C(=O)OC)C(C)(C)O1 (stereo not drawn) | 162
40 | COc1ccc(CN)c(F)c1F | 34
41 | Nc1nc(O)cc(Cl)n1 | 262
42 | CCS(=O)CC | 14
43 | O=C1CSc2cc(Cl)ccc2N1 | 214
44 | CCCCCCCCCCC(C)C(=O)O (stereo not drawn) | 22
45 | Cn1cncc1C=O | 55
46 | CCCCCCCCCCCCCCCCC(C)C | 15

Row | Compound | melting point [°C]
47 | Cc1ccc(C(=O)C2=NOC3C(=O)N(c4ccc(F)cc4)C(=O)C23)cc1 (stereo not drawn) | 173
48 | CC(C)(C)OC(=O)N[C@@H](Cc1ccc(Cl)cc1)C(=O)O | 110
49 | O=Cc1c[nH]nc1-c1cccs1 | 102 to 103
50 | O=C(O)C=Cc1ccccc1Br | 215 to 216
51 | NC(=O)CC(N)=O | 169
52 | CC(C)(C)OC(=O)Nc1ccco1 | 98 to 100
53 | CNC(=O)c1cc(C)cc(Cl)c1NC(=O)c1cc(Br)nn1-c1ncccc1Cl | 209
54 | Cc1cc(N)ccc1N | 64
55 | C#CCCCCCCCC | -44
56 | Nc1cc[nH]n1 | 37
57 | Cc1ccccc1C1(C#N)Cc2ccccc2C(=O)O1 (stereo not drawn) | 121 to 123
58 | O=C(N[C@@H](Cc1ccccc1)C(=O)Oc1c(F)c(F)c(F)c(F)c1F)OCC1c2ccccc2-c2ccccc21 | 151 to 152
59 | CC1=Nc2ccc3ccccc3c2C1(C)C | 117
60 | C=C1C(=O)C23C(OC(C)=O)CC4C5(C)CCCC4(C(OC)OC5)C2C(OC(C)=O)CC1C3OC(C)=O (stereo not drawn) | 71
61 | Cc1cccc(NC(=O)C(C(F)(F)F)(C(F)(F)F)C(F)(F)F)c1 | 188
62 | O=Cc1cc(F)cc2c1OCOC2 | 113 to 114
63 | Oc1nc(C2CCCCC2)nn1-c1ccccc1 | 197
64 | Cc1cc(I)ccc1N | 86
65 | Nc1ccc(OC(F)(F)F)cc1[N+](=O)[O-] | 62 to 64
66 | Cc1nc(C=O)c[nH]1 | 165
67 | O=[N+]([O-])c1ccc2cccnc2c1 | 132
68 | O=C1c2ccccc2-c2ccc(O)cc21 | 205
69 | O=C(Nc1nccs1)C(F)(F)C(F)(F)C(F)(F)C(F)(F)C(F)(F)C(F)(F)C(F)(F)C(F)(F)F | 146

Row | Compound | melting point [°C]
70 | CC(C)Oc1ccc(C(=O)NS(=O)(=O)c2ccc(N)cc2)cc1 | 172
71 | CCCCCCCCCCCCOC(=O)c1ccccc1C(=O)OCCCCCCCCCCCC | 21 to 23
72 | CC(=O)Cc1ccco1 | 29
73 | N#Cc1ccc(N=C=S)cc1 | 120
74 | Cc1ccc(C#N)c(N)c1 | 92 to 93
75 | O=[N+]([O-])c1ccc(N/N=C2\C=C(c3ccccc3)c3ccccc32)cc1 | 265 to 266
76 | CCC(C)CCC(C)O (stereo not drawn) | -61
77 | CCCCC(CC)COP(=O)(Oc1ccccc1)Oc1ccccc1 (stereo not drawn) | -54
78 | FC(F)(F)c1ccc(-c2nnc(S)o2)cc1 | 155 to 156
79 | COc1ccc2cc([N+](=O)[O-])ccc2c1C=O | 174
80 | Nc1nc(O)cc(C(F)(F)F)n1 | 290
81 | CCOC(=O)N(c1ccccc1)c1ccccc1 | 72
82 | CC(=O)OCC(=O)C12N=C(C)OC1CC1C3CCC4=CC(=O)C=CC4(C)C3C(O)CC12C (stereo not drawn) | 256
83 | CCOc1ccc2c3c1OC1C(O)C=CC4C(C2)N(C)CCC341 (stereo not drawn) | 200
84 | C#CCCCCCCC(=O)O | 19
85 | CCOC(=O)c1cc(C)n(C)n1 | 87
86 | CC(O)C(N)CO (stereo not drawn) | 54 to 57
87 | O=C(O)C(F)=Cc1ccccc1 | 158
88 | Cc1cc(=O)oc2cc(O)c(Cl)cc12 | 278 to 280
89 | CCCCCCCCCCCCc1ccccc1S(=O)(=O)O | 10
90 | CC(C)(C)N(NC(=O)c1ccccc1)C(=O)c1ccccc1F | 184
91 | CCOC(=O)N=C(c1ccc[nH]1)N1CCOCC1 | 147 to 149
92 | Nc1cc(Cl)cc(Cl)c1O | 97

Row | Compound | melting point [°C]
93 | CCCCc1c(C)nc(N)nc1O | 273 to 275
94 | O=[N+]([O-])c1cc(Br)cnc1Cl | 64 to 67
95 | CC1(O)C(=O)CC2CC1C2(C)C (stereo not drawn) | 38.5
96 | CCOC(=O)C1=NN(c2ccc([N+](=O)[O-])cc2)C2(C)CC3(c4ccccc4)N(c4ccc([N+](=O)[O-])cc4)N=C(C(=O)OCC)N3c3ccccc3N12 (stereo not drawn) | 237 to 239
97 | O=C(O)c1ccc(O)c(O)c1 | 201
98 | O=C1NN(c2ccccc2)C(=O)C1=Cc1ccc(Cl)cc1 | 322
99 | OC1OC2(CCCCC2)Cc2ccccc21 (stereo not drawn) | 89
100 | CCOc1cc(OP(=S)(OC)OC)nc(CC)n1 | -3.35
101 | O=C(O)C12CC3CC(CC(Br)(C3)C1)C2 | 147 to 148
102 | CC(=O)Nc1cc(N)c(C=Cc2ccccc2)cc1/C=C/c1ccccc1 | 218
103 | Cc1cc(CO)n[nH]1 | 78 to 80
104 | Cc1cc(=O)oc2cc(OCC(=O)Cl)ccc12 | 129
105 | O=C1NN=C(C(F)(F)F)C1=NNc1cccc([N+](=O)[O-])c1 | 254
106 | CCCCCCCCN1CCCC1=O | -25
107 | O=C(O)c1ncoc1-c1ccccc1 | 181
108 | NC(COc1ccccc1)=NO | 93 to 94
109 | N=C(N)N/N=C(\C(=S)Nc1ccc(Br)cc1)c1ccccc1 | 210 to 211
110 | CCCCNC(=O)NCC(=O)O | 140
111 | Cc1c(N=C=O)cccc1N=C=O | 18.3
112 | COc1cc(C(C)=O)cc(OC)c1O | 123 to 128
113 | CSc1nc(N)c(C(=O)c2ccc([N+](=O)[O-])cc2)s1 | 200 to 202
114 | CCCS(=O)CCC | 22.5
115 | CCCCCCc1ccc(C(=O)Oc2ccc(C#N)cc2)cc1 | 46

Row | Compound | melting point [°C]
116 | CCOC(=O)c1cc2cccc([N+](=O)[O-])c2[nH]1 | 90 to 96
117 | O=C1NN(c2ccccc2)C(=O)C1(Br)Br | 119
118 | Cc1ccc(N)c(C)c1 | 16
119 | Cc1nnc(-c2cccc(S(=O)(=O)Cl)c2)o1 | 56 to 59
120 | O=C1CNC(=S)N1 | 230
121 | COc1cc(C(=O)OCCCl)cc(OC)c1OC | 69
122 | COc1ccc(CNc2ccc([N+](=O)[O-])c3nonc23)cc1 | 176 to 180
123 | Cc1cccc(NC(N)=O)c1 | 138 to 143
124 | O=C1CCCN1c1ccccc1 | 66
125 | FC(F)(Cl)CCl | -101
126 | Ic1ccc(OC2CCOCC2)cc1 | 88.5 to 89.5
127 | Nc1ncnc2c1ncn2C1OC(CO)CC1O (stereo not drawn) | 226
128 | CCC1(O)c2ccccc2C1C (stereo not drawn) | 52
129 | CC(C)(C)c1cc2c(O)c(c1)Cc1cc(C(C)(C)C)cc(c1O)Cc1cc(C(C)(C)C)cc(c1O)Cc1cc(C(C)(C)C)cc(c1O)C2 | 300
130 | CCCCC(CC)CCl (stereo not drawn) | -70
131 | C=Cc1cccc(CC)c1 | -101
132 | O=C(Cl)c1ccc(-c2nccs2)cc1 | 122 to 123
133 | C(=C/c1ccc(/N=C/c2ccccc2)cc1)/c1ccc(/N=C/c2ccccc2)cc1 | 104
